Assay results as given in patent publication US20160175313A1, “ENTECAVIR MICROSPHERES AND PHARMACEUTICAL COMPOSITION FOR PARENTERAL ADMINISTRATION CONTAINING SAME” (priority 2013, published 2016).

Key:
[1] = orally administered; cited from earlier work
[2] = Solubility of entecavir in organic solvent; format: physicochemical
[3] = system: rats
Procedure: A test was conducted to determine whether local irritation is caused by subcutaneous administration of entecavir into rats.
After entecavir (2.33 mg/kg/day) was subcutaneously injected into 15 male rats per each group, mortality, common symptoms, body weight, autopsy and histopathological evaluation on 1, 4, 5, 8 and 12 weeks were checked to compare with the control group in which excipient was administered.

[4] = system: HBV; settings: first-time patients, oral preparations, cited from earlier work
[5] = rat, in vivo, sc, 2.33 mg/kg/day

Structure (SMILES): C=C1[C@H](CO)[C@@H](O)C[C@@H]1n1cnc2c(=O)[nH]c(N)nc21 [entecavir, Entecavir]
- bioavailability [1]: ~100%
- solubility in methylene chloride [2]: insoluble
- mortality ([3]; male rats, 2.33 mg/kg/day subcutaneous, checked up to 12 weeks): no dead animal was observed
- local toxicity, overall conclusion ([3]; rat, in vivo, sc): did not show harmful local toxicity
- abnormal symptoms and abnormal body weight change related to administration [3, 5]: not observed
- autopsy results [3, 5]: no abnormal finding
- inflammation (histopathology) [3, 5]: inflammation was observed
- recovery from inflammation [3, 5]: all animals recovered from inflammation
- injection site microscopy (H&E staining), inflammatory cells ([3]; rats, 4 weeks after subcutaneous administration, 2.33 mg/kg/day): some subcutaneous tissue inflammatory cells were observed
- patients HBV-undetectable after 1 year of administration ([4]; 1 year): about 70%
- patients HBV-undetectable after 3 years ([4]; 3 years): about 90%
